System: trained expert panelists
Test: Sensory formulation study ballot: taste attributes rated on 0-15 scales by trained expert panelists
Type: in vivo, human
Details: 0-15 scale, rating defined for panel calibration
Description: Tongue numbing can also manifest itself as “tongue tingling”. These non-sugar-like characteristics appear inter-related in the sense that formulation as well as temperature changes affect the perception of several of them. Another taste characteristic of steviol glycosides, particularly those with relatively low levels of REB A, is soapiness, a characteristic that results from the surfactant portion of the molecule. To quantify all of these sensory effects by existing methods would require an expert sensory panel and at least 4 different sensory tests (i.e., C/R Function Determination, Flavor Profile Analysis, Temporal Profile Analysis and Adaptation Profile Analysis). However, to address a need for rapid screening of HP sweetener formulations, Prakash et al., described a scaling technique to quantify all of these sensory percepts in a single test (reference shown below under the table). An improvement of this methodology is described below.
Prior to the evaluation of test samples, all panelists must first calibrate themselves on Sucrose and Reference Samples (e.g., REB A) to ensure that they are able to appropriately scale taste attributes of interest. These Reference Samples are to be available in ample quantities for all experimental sessions. The Sucrose Reference is 10.0% sucrose acidified with 0.1% citric acid. For illustration purposes, an example of a Reference Sample can be a REB A Reference Sample that has 500 PPM REB A in the same system for general formula optimization studies.
Take a ca. 15 mL sample of the Sucrose Reference into the mouth swishing it around vigorously and note all attributes of the sensory experience. After ca. 10 sec, expectorate the sample and immediately rinse vigorously with ca. 15 mL of water, expectorating the rinse water. Over the next 2 minutes, while minimizing tongue movement in the mouth, pay attention to any rebound or intensification in perceived sweetness, bitterness, or numbing/tingling sensation. The intensity of the attribute perceived at 2 minutes is an estimate of its lingering tendency. Upon completion of calibration with the Sucrose Reference, calibration with the REB A Reference is carried out in the same way. The attribute ratings for the Sucrose and REB A References, all on 0-15 scales, are defined as follows: […]
After completion of reference sample calibrations, as well as in follow up of all sample tests, rinse the mouth vigorously with ca. 15 mL portions of the Sucrose Reference solution and two ca. 15 mL portions of water in effort to get the sensory system back to baseline.
After calibration with the Sucrose Reference and REB A Reference, evaluate all experimental samples by the same protocol, always using the Sucrose Reference and water rinse procedure and ensuring adequate time for the sensory system to return to normal before proceeding with subsequent samples
Taste procedure: the beverages were evaluated in triplicate using the sensory methodology described herein by four trained expert panelists and mean values were used for data analysis.

[1] = 2 minutes after expectoration and rinse, 10.0% sucrose or 500 PPM REB A in 0.1% citric acid
[2] = Sucrose Reference 10.0% sucrose, REB A Reference 500 PPM, both in 0.1% citric acid

C=C1C[C@@]23CC[C@H]4[C@@](C)(CCC[C@@]4(C)C(=O)O[C@@H]4O[C@H](CO)[C@@H](O)[C@H](O)[C@H]4O)[C@@H]2CC[C@]1(O[C@@H]1O[C@H](CO)[C@@H](O)[C@H](O[C@@H]2O[C@H](CO)[C@@H](O)[C@H](O)[C@H]2O)[C@H]1O[C@@H]1O[C@H](CO)[C@@H](O)[C@H](O)[C@H]1O)C3 [REB A100 Reference, rebaudioside A]
Bitterness Intensity @ 2 Min (Bitter2) [1]: 2
Numbing/Tingling Sensation @ 2 Min (Numb/Ting2) [1]: 2
Sweetness Intensity @ 2 Min (Sweet2) [1]: 3
Astringency Intensity (Astring) [2]: 0
Bitterness Intensity (IB) [2]: 3
Mouthfeel (Mfeel) [2]: 0
Numbing/Tingling Sensation (Numb/Ting) [2]: 0
Soapiness (Soap) [2]: 1
Sweetness Intensity Initial (Sweetness) [2]: 10
Sweetness Onset/Appearance Time (Onset) [2]: 3

Source: patent publication US20160235102A1, “SWEETENER COMPOSITION, SWEETENER PRODUCTS, AND METHODS OF SWEETENING” (ALMENDRA AMERICAS, LLC, priority 2013, published 2016)
